Measured values published in PMC8360007, “Stereoselective Access to Antimelanoma Agents by Hybridization and Dimerization of Dihydroartemisinin and Artesunic acid” (Chemmedchem, 2021).
Where two headings read alike, the source gives them in different places.

Assays:
[1] = tested on: metastatic melanoma cancer cell line RPMI7951; test: cell survival MTT assay on metastatic melanoma cancer cell line RPMI7951; format: cell-based; settings: Homo sapiens, RPMI-7951, read-out: IC50±SD RPMI7951
Experimental: (§1) The anticancer‐activity of DHA and ART hybrids 7‐β, 12‐β, 13‐α, 14‐α, 15‐α, and 16‐α, and of DHA and ART dimers 17‐α,α, 18‐α,α, 19‐β,β, 20‐α,α, 21‐α,α and 22‐α,α, was evaluated by the cell survival MTT assay on metastatic melanoma cancer cell line RPMI7951. Artemisinin 1, DHA 2, ART 3, hybrids 5–7, dimer 8, and commercially available drug paclitaxel (Taxol) were used as reference. In addition, data were compared with experiments performed on normal human primary fibroblast cell line (C3PV). Table 1 reports the IC50 (half‐maximal inhibitory concentration) and CC50 (half‐maximal cytotoxic concentration) values of the tested compounds.
(§2) The primary human fibroblast C3PV cell line was treated according to Botta et al.[27] Metastatic melanoma cell line (RPMI7951) was grown in Eagle's Minimum Essential Medium (EMEM) containing 15 % and 10 % FBS respectively, in addition to penicillin (100 U/ml) and streptomycin (1 mg/ml). The cell lines were maintained at 37 °C in a humidified atmosphere (95 %) in the presence of 5.0 % CO2. Prostate cancer (PC3) and breast cancer (MDA‐MB‐231) cell lines were raised in DMEM/F12 and RMPI1640 medium, respectively. To the medium was added 10 % FBS, 1 mM Glutammine and 40 μg/ml of Gentamicin. All cell lines were mantained at 37 °C in a humidified atmosphere (95 %) in the presence of 5.0 of CO2.
To study the effect of artemisinin and its derivatives on cell viability C3PV, RPMI7951, PC3, MDA‐MB‐231 cell lines were seeded in 96‐well plates (6000 cells/well in 100 μl medium) and incubated overnight to allow cell adherence. After, the medium was replaced with fresh medium containing the appropriate dose of compound. Artemisinin and its derivatives were used in a range of […] for 24 h. The analyses of cell viability were done at the end of treatment. […]
(§3) The CC50 and IC50 values were determined by non‐linear regression using the program graphpad prism 6.
(§4) Cell viability was evaluated using MTT cell proliferation assay. Briefly, after incubation for 3 h at 37 °C with MTT (0.5 mg/ml) the supernatant was replaced with 100 μl of a lysis solution containing 10 % SDS, 0.6 % Acetic acid in DMSO to dissolve the formazan crystals. Optical density measurements were performed with a scanning spectrophotometer DTX880 Multimode Detector (Beckman Coulter) using a 630 nm (background) and a 570 nm filter.

[2] = MTT cell viability (cytotoxicity) on normal human primary fibroblast C3PV; format: cell-based
Experimental: as §1, §2
(§5) To study the effect of artemisinin and its derivatives on cell viability C3PV, RPMI7951, PC3, MDA‐MB‐231 cell lines were seeded in 96‐well plates (6000 cells/well in 100 μl medium) and incubated overnight to allow cell adherence. After, the medium was replaced with fresh medium containing the appropriate dose of compound. […] The analyses of cell viability were done at the end of treatment. The assays were performed in quadruplicate for both treatments.
as §3, §4

[3] = tested on: human prostate (PC3) cancer cell line; test: MTT cell viability on prostate cancer PC3 cell line; format: cell-based; settings: PC-3, triplicate, read-out: IC50±SD PC3
Experimental: (§6) The effect of dimers 20–22‐α,α was further evaluated against other tumour types, such as human prostate and breast cancers in PC3 and MDA‐MB‐231 cell lines, respectively (Table 2).
as §2, §5, §4

[4] = tested on: human breast (MDA‐MB‐231) cancer cell line; test: MTT cell viability on breast cancer MDA‐MB‐231 cell line; format: cell-based; settings: triplicate, read-out: IC50±SD MDA‐MB‐231
Experimental: as §6, §2, §5, §4

[5] = tested on: metastatic melanoma cancer cell line RPMI7951; parameters: method as in PMID 31956771; settings: cited from earlier work
[6] = tested on: normal human primary fibroblast cell line (C3PV); parameters: method as in PMID 31956771; settings: cytotoxicity data from ref. 12; read-out: CC50±SD C3PV; cited from earlier work
[7] = MTT cell viability (cytotoxicity) on normal human primary fibroblast C3PV; format: cell-based; settings: C3PV normal primary fibroblast cells, 24 h treatment, triplicate, read-out: CC50±SD C3PV
[8] = stability in assay medium by HPLC; format: physicochemical; settings: 24 and 48 hours, 25 °C, pH=7, in comparison with artesunic acid 3
[9] = MTT, 24 h treatment, triplicate
[10] = antimelanoma data from ref. 12, read-out: IC50±SD RPMI7951

Row | Structure (SMILES) | IC50 [1, 9] [nM] | CC50 at 24 h [2] [nM] | other results
1 | CC1CCC2C(C)C(OC(=O)CCC(=O)NCCc3ccc(OC(=O)CCC(=O)OC4OC5OC6(C)CCC7C(C)CCC(C4C)C57OO6)cc3)OC3OC4(C)CCC1C32OO4 (stereo not drawn) [20‐α,α] | 2450 ± 50 | 228000 ± 1500 | IC50 ([1]; in absence of DFO): 2450 ± 50 nM; IC50 [3]: 2300 ± 350 nM; IC50 [4]: 1300 ± 850 nM
2 | CC(=O)O[C@H]1C(=O)[C@@]2(C)[C@H]([C@H](OC(=O)c3ccccc3)[C@]3(O)C[C@H](OC(=O)[C@H](O)[C@@H](NC(=O)c4ccccc4)c4ccccc4)C(C)=C1C3(C)C)[C@]1(OC(C)=O)CO[C@@H]1C[C@@H]2O [Paclitaxel, paclitaxel, reference compound] | 13 | 78900 ± 790 | –
3 | CC1CCC2C(C)C(OC(=O)CCC(=O)OCCc3ccc(OC(=O)CCC(=O)OC4OC5OC6(C)CCC7C(C)CCC(C4C)C57OO6)cc3)OC3OC4(C)CCC1C32OO4 (stereo not drawn) [Compound 8] | – | – | IC50 [5, 10]: 490 ± 50 nM; IC50 ([5]; introduction, earlier library, read-out: IC50 against RPMI‐7951 cell line): 1370 ± 130 nM; CC50 [6]: 6100 ± 3740 nM
4 | C[C@H]1[C@H](OC(=O)CCC(=O)O[C@@H]2O[C@@H]3O[C@@]4(C)CC[C@H]5[C@H](C)CC[C@@H]([C@H]2C)[C@@]35OO4)O[C@@H]2O[C@@]3(C)CC[C@H]4[C@H](C)CC[C@@H]1[C@@]24OO3 [17‐α,α] | 70 ± 10 | – | CC50 at 24 h [7]: 250 ± 30 nM
5 | CC1CCC2C(C)C(OC(=O)CCC(=O)OCc3ccc(OC(=O)CCC(=O)OC4OC5OC6(C)CCC7C(C)CCC(C4C)C57OO6)cc3)OC3OC4(C)CCC1C32OO4 (stereo not drawn) [Compound 22‐α,α] | 50 ± 20 | > 300000 | IC50 ([1]; in absence of DFO): 50 ± 20 nM; IC50 [3]: 3100 ± 190 nM; IC50 [4]: 2400 ± 950 nM; stability after exposition to assay medium (HPLC) [8]: good stability
6 | C[C@H]1[C@@H](OCCCCO[C@H]2O[C@@H]3O[C@@]4(C)CC[C@H]5[C@H](C)CC[C@@H]([C@H]2C)[C@@]35OO4)O[C@@H]2O[C@@]3(C)CC[C@H]4[C@H](C)CC[C@@H]1[C@@]24OO3 [19‐β,β] | 3600 ± 950 | 5700 ± 790 | –
7 | COC(=O)C(Cc1ccc(OC(=O)CCC(=O)OC2OC3OC4(C)CCC5C(C)CCC(C2C)C35OO4)cc1)NC(=O)CCC(=O)OC1OC2OC3(C)CCC4C(C)CCC(C1C)C24OO3 (stereo not drawn) [21‐α,α] | 1760 ± 30 | > 300000 | IC50 ([1]; in absence of DFO): 1760 ± 30 nM; IC50 [3]: 3040 ± 340 nM; IC50 [4]: 3080 ± 850 nM
8 | COC(=O)C(Cc1ccc(O)cc1)NC(=O)CCC(=O)O[C@@H]1O[C@@H]2O[C@@]3(C)CC[C@H]4[C@H](C)CC[C@@H]([C@H]1C)[C@@]24OO3 (stereo partly drawn) [14‐α] | 1300 ± 70 | 6380 ± 1500 | –
9 | C[C@@H]1CC[C@H]2[C@@H](C)C(OC(=O)CCC(=O)Oc3ccc(CCO)cc3)O[C@@H]3O[C@@]4(C)CC[C@@H]1[C@]32OO4 (stereo partly drawn) [Compound 7] | – | – | IC50 [5, 10]: 90 ± 30 nM; CC50 [6]: 132000 ± 12600 nM
10 | C[C@H]1[C@H](OC(=O)c2ccccc2C(=O)O[C@@H]2O[C@@H]3O[C@@]4(C)CC[C@H]5[C@H](C)CC[C@@H]([C@H]2C)[C@@]35OO4)O[C@@H]2O[C@@]3(C)CC[C@H]4[C@H](C)CC[C@@H]1[C@@]24OO3 [18‐α,α] | 10800 ± 1600 | 8000 ± 100 | –
11 | CC1CCC2C(C)C(OCCc3ccc(O)cc3)OC3OC4(C)CCC1C32OO4 (stereo not drawn) [12‐β] | 400 ± 30 | 38200 ± 2560 | –
12 | C[C@@H]1CC[C@H]2[C@@H](C)C(OC(=O)CCC(=O)OCCc3ccc(O)cc3)O[C@@H]3O[C@@]4(C)CC[C@@H]1[C@]32OO4 (stereo partly drawn) [Compound 6] | – | – | IC50 [5, 10]: 8340 ± 3060 nM; CC50 [6]: > 300000 nM
13 | C[C@H]1[C@H](OC(=O)CCC(=O)Oc2ccc(CO)cc2)O[C@@H]2O[C@@]3(C)CC[C@H]4[C@H](C)CC[C@@H]1[C@@]24OO3 [15‐α] | 2500 ± 50 | 55200 ± 7330 | –
14 | C[C@H]1[C@H](OC(=O)CCC(=O)O)O[C@@H]2O[C@@]3(C)CC[C@H]4[C@H](C)CC[C@@H]1[C@@]24OO3 [Compound 3, artesunic acid] | 1080 ± 560 | – | CC50 at 24 h [7]: 1680 ± 440 nM
15 | C[C@@H]1CC[C@H]2[C@@H](C)C(OCCc3ccc(O)cc3)O[C@@H]3O[C@@]4(C)CC[C@@H]1[C@]32OO4 (stereo partly drawn) [Compound 5] | – | – | IC50 [5, 10]: 330 ± 80 nM; CC50 [6]: 1760 ± 310 nM
16 | C[C@H]1[C@H](OC(=O)CCC(=O)NCCc2ccc(O)cc2)O[C@@H]2O[C@@]3(C)CC[C@H]4[C@H](C)CC[C@@H]1[C@@]24OO3 [13‐α] | 1700 ± 30 | 3390 ± 50 | –
17 | C[C@@H]1CC[C@H]2[C@@H](C)C(=O)O[C@@H]3O[C@@]4(C)CC[C@@H]1[C@]32OO4 [Compound 1, artemisinin] | 3620 ± 990 | – | CC50 at 24 h [7]: > 300000 nM
18 | CC1CCC2C(C)C(Oc3ccc(CCO)cc3)OC3OC4(C)CCC1C32OO4 (stereo not drawn) [7‐β] | 200 ± 10 | 1140 ± 450 | –
19 | C[C@H]1[C@H](OC(=O)c2ccccc2C(=O)O)O[C@@H]2O[C@@]3(C)CC[C@H]4[C@H](C)CC[C@@H]1[C@@]24OO3 [16‐α] | 4600 ± 30 | 8140 ± 850 | –
20 | C[C@H]1[C@@H](O)O[C@@H]2O[C@@]3(C)CC[C@H]4[C@H](C)CC[C@@H]1[C@@]24OO3 [Compound 2, dihydroartemisinin] | 910 ± 450 | 680 ± 190 | –
